# Results as given in publication PMC10969092, “Characterization of Lysophospholipase D Activity in Mammalian Cell Membranes” (Cells, 2024).
# Where two headings read alike, the source gives them in different places.
# Assays:
# [1] = molecular target: T1, PLD (Rattus norvegicus, UniProt P70498); assay: In vitro fluorescent PLD assay in cell membranes (B-PC substrate with butanol, B-PBt product); assay type: biochemical
# T1 construct: PC12K membranes were incubated with either B-PC (for PLD assay) or commercial B-lyso-PC (for lyso-PLD assay); endogenous in cells; host or cells: PC12K and A7r5 cell membranes (100,000 x g pellet)
# [2] = system: lyso-PLD; assay type: biochemical, human; conditions: PC-3 membranes; for Ability to compete with B-lyso-PC for utilization by lyso-PLD: up to 4.6 mM; for EC50: single-site competition fit, read-out: EC50 for inhibiting B-lyso-PC conversion to B-LPA
# [3] = system: lyso-PLD; assay: In vitro membrane lyso-PLD assay (B-lyso-PC substrate, B-LPA product); assay type: biochemical, rat
# [4] = system: PLD; assay: PLD activity in intact cells; assay type: cell-based; conditions: multiple cell types, varying experimental conditions
# [5] = system: PLD; set-up: method as in PMID 9655185; conditions: cited from earlier work
# [6] = system: PLC from Bacillus cereus; conditions: cited from earlier work
# [7] = system: PLA2
# [8] = system: cabbage PLD; conditions: cited from earlier work
# T1 sequence (P70498 whole entry): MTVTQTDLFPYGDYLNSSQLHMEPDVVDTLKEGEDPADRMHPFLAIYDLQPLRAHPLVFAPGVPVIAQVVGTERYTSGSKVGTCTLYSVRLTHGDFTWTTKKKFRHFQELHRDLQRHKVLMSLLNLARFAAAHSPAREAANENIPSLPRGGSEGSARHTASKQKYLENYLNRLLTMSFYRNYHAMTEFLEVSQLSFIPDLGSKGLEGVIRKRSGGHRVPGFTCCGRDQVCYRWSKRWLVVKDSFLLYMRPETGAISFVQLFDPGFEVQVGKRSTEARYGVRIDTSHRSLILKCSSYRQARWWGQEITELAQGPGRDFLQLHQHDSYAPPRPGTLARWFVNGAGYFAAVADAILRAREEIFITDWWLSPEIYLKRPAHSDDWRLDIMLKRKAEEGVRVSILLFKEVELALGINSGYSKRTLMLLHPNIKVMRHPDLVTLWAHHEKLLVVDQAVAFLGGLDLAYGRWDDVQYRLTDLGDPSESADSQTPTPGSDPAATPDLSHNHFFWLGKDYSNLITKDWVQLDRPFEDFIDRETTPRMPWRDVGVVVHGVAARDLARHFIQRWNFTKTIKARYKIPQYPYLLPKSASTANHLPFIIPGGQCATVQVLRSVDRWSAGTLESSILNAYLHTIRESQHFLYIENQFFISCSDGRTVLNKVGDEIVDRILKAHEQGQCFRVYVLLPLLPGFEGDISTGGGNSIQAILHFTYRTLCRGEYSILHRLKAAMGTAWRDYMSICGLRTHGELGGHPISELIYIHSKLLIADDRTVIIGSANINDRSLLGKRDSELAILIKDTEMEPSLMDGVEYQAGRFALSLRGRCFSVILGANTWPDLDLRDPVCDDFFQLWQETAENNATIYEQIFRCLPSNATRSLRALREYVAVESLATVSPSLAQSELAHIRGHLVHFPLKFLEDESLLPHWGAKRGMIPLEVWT
molecule,measurement,setting,value
O=C([O-])C(=O)[O-].[K+].[K+] [potassium oxalate],Inhibition of PLD in screening assays,[1]; concentrations of 1–10 mM,did not inhibit PLD
O=S(=O)([O-])[O-].[Zn+2] [zinc sulfate],Inhibition of PLD in screening assays,[1],did not inhibit PLD
Lyso-phosphatidylserine,Ability to compete with B-lyso-PC for utilization by lyso-PLD,[2],poor competitor
CCCCCCCCCCCCCCCCCC(=O)OC[C@@H](O)COP(=O)([O-])OCC[N+](C)(C)C [C18-lyso-PC],EC50,[2],~300 µM
C[S+](C)[O-] [dimethylsulfoxide],Effect on PLD activity,"[1]; 8%, cell line not stated",completely inhibited
same,Effect on lyso-PLD activity,"[3]; 8%, cell line not stated",relatively insensitive
Nc1ncnc2c1ncn2[C@@H]1O[C@H](COP(=O)(O)OP(=O)(O)OP(=O)(O)O)[C@@H](O)[C@H]1O [ATP],Stimulation of lyso-PLD activity,[3],did not stimulate lyso-PLD activity
lyso-phosphatidylethanol,Ability to compete with B-lyso-PC for utilization by lyso-PLD,[2],least effective
[Na+].[Na+].[O]=[Mo](=[O])([O-])[O-] [sodium molybdate],Inhibition of PLD in screening assays,[1]; concentrations of 1–10 mM,did not inhibit PLD
O=P(O)(O)OC(CO)CO [β-glycerophosphate],Inhibition of PLD in screening assays,[1],did not inhibit PLD
pervanadate,Inhibition of PLD in intact cells,[4],"failed to show that vanadate, pervanadate, or iodate inhibits PLD"
same,Effect on PLD in intact endothelial cells,[5],activate PLD
O=C([O-])C(=O)[O-].[Na+].[Na+] [sodium oxalate],Inhibition of PLD in screening assays,[1]; concentrations of 1–10 mM,did not inhibit PLD
CCCCCCCC/C=C\CCCCCCCC(=O)OC[C@@H](O)COP(=O)([O-])OCC[N+](C)(C)C [C18:1-lyso-PC],EC50,[2],~300 µM
[Cl-].[Cl-].[Mg+2] [magnesium chloride],Inhibition of PLD in screening assays,[1],did not inhibit PLD
same,Stimulation of lyso-PLD activity,[3],did not stimulate lyso-PLD activity
CCCCCCCCCCCCCCCC(=O)OC[C@@H](O)COP(=O)([O-])OCC[N+](C)(C)C [C16-lyso-PC],EC50,[2],~300 µM
CCCCCCCCCCCCCCCCCCOC[C@@H](O)COP(=O)([O-])OCC[N+](C)(C)C [C18-lyso-PAF],EC50,[2],~400 µM
sodium tungstate,Inhibition of PLD in screening assays,[1]; concentrations of 1–10 mM,did not inhibit PLD
O=S(=O)([O-])[O-].[Cu+2] [copper sulfate],Inhibition of PLD in screening assays,[1],did not inhibit PLD
O=[N+]([O-])c1ccc(OP(=O)(O)O)cc1 [para-nitrophenol phosphate],Inhibition of PLD in screening assays,[1],did not inhibit PLD
sodium orthovanadate,Inhibition of PLC from Bacillus cereus,[6],inhibit a PLC from Bacillus cereus
same,B-PBt levels in kinetic study,"[1]; 1 mM added after 10 min, PC12K membranes, B-PC substrate",B-PBt levels declined
same,Effect on PLD activity (production of B-PBt),"[1]; 1 mM, A7r5 membranes, B-PC substrate",profound inhibition of PLD activity
same,Effect on lyso-PLD activity (B-LPA from B-lyso-PC),[3],did not inhibit
same,Production of LPA in kinetic study,[3],not significantly affected
same,Inhibition of PLD in intact cells,[4],"failed to show that vanadate, pervanadate, or iodate inhibits PLD"
same,B-lyso-PBt production in kinetic study,[7],continued but at a reduced rate
same,Effect on PLA2 activity (generation of B-lyso-PC and B-lyso-PBt from B-PC),[7],did not inhibit
same,lyso-PC accumulation in kinetic study,[7],did not affect lyso-PC accumulation
same,Direct inhibition of cabbage PLD,[8],directly inhibit cabbage PLD
CCCCCCCCCCCCCCCCOC[C@@H](O)COP(=O)([O-])OCC[N+](C)(C)C [C16-lyso-PAF],EC50,[2],~400 µM
O=S(=O)([O-])[O-].[Mg+2] [magnesium sulfate],Inhibition of PLD in screening assays,[1],did not inhibit PLD
